# Reference: patent US9469617B2, “Molecules having certain pesticidal utilities, and intermediates, compositions, and processes related thereto” (priority 2014, dated 2016)
# Counter-ions that a name gives are not always drawn. Like-named read-outs stand apart in the source and are kept apart here.
# Columns and labels:
# Format in all cases: in vivo
# [1] = system: Beet Armyworm (BAW) (Spodoptera exigua); assay: Bioassay on Beet Armyworm (BAW), 128-well diet tray assay; conditions: 168 h, read-out: BAW % Control (or Mortality) rating
# Experimental: (§1) Certain molecules disclosed in this document were tested against BAW and CL using procedures described in the following examples. In the reporting of the results, the “BAW & CL Rating Table” was used (See Table Section).
# Bioassays on BAW were conducted using a 128-well diet tray assay. one to five second instar BAW larvae were placed in each well (3 mL) of the diet tray that had been previously filled with 1 mL of artificial diet to which 50 μg/cm^2 of the test compound (dissolved in 50 μL of 90:10 acetone-water mixture) had been applied (to each of eight wells) and then allowed to dry. Trays were covered with a clear self-adhesive cover, and held at 25° C., 14:10 light-dark for five to seven days. Percent mortality was recorded for the larvae in each well; activity in the eight wells was then averaged. The results are indicated in the tables entitled “Table ABC: Assay Results” and “Table ABCD: Assay Results” (See Table Section).
# [2] = system: Cabbage Looper (CL) (Trichoplusia ni); assay: Bioassay on Cabbage Looper (CL), 128-well diet tray assay; conditions: 168 h, read-out: CL % Control (or Mortality) rating
# Experimental: as §1
# Bioassays on CL were conducted using a 128-well diet tray assay. One to five second instar CL larvae were placed in each well (3 mL) of the diet tray that had been previously filled with 1 mL of artificial diet to which 50 μg/cm^2 of the test compound (dissolved in 50 μL of 90:10 acetone-water mixture) had been applied (to each of eight wells) and then allowed to dry. Trays were covered with a clear self-adhesive cover, and held at 25° C., 14:10 light-dark for five to seven days. Percent mortality was recorded for the larvae in each well; activity in the eight wells was then averaged. The results are indicated in the table entitled “Table ABC: Assay Results” and “Table ABCD: Assay Results” (See Table Section).
# [3] = system: Yellow Fever Mosquito (YFM) (Aedes aegypti); assay: Bioassay on Yellow Fever Mosquito (YFM) larvae, 96-well plate; conditions: about 1 day-old larvae, master plate 4000 ppm in DMSO diluted, scored on mortality after 3 days
# Experimental: Certain molecules disclosed in this document were tested against YFM using procedures described in the following paragraph. In the reporting of the results, the “GPA & YFM Rating Table” was used (See Table Section).
# Master plates containing 400 μg of a molecule dissolved in 100 μL of dimethyl sulfoxide (DMSO) (equivalent to a 4000 ppm solution) are used. A master plate of assembled molecules contains 15 μL per well. To this plate, 135 μL of a 90:10 water:acetone mixture is added to each well. A robot (Biomek® NXP Laboratory Automation Workstation) is programmed to dispense 15 μL aspirations from the master plate into an empty 96-well shallow plate (“daughter” plate). There are 6 reps (“daughter” plates) created per master. The created daughter plates are then immediately infested with YFM larvae.
# The day before plates are to be treated, mosquito eggs are placed in Millipore water containing liver powder to begin hatching (4 g. into 400 mL). After the daughter plates are created using the robot, they are infested with 220 μL of the liver powder/larval mosquito mixture (about 1 day-old larvae). After plates are infested with mosquito larvae, a non-evaporative lid is used to cover the plate to reduce drying. Plates are held at room temperature for 3 days prior to grading. After 3 days, each well is observed and scored based on mortality.
# [4] = Table ABCD, 50 μg/cm^2 on artificial diet, second instar larvae, five to seven days, 25° C.
# [5] = Table ABC, 50 μg/cm^2 on artificial diet, second instar larvae, five to seven days, 25° C.
Structure (SMILES),YFM % Control (or Mortality) rating ([3]; Table ABCD),"mortality at 50 µg/cm2 [1, 5] [%]","mortality at 50 µg/cm2 [2, 5] [%]",further results
"CC(C)(C)OC(=O)NC1Cc2ccc(-c3ncn(-c4ccc(OC(F)(F)C(F)(F)F)cc4)n3)cc2C1 (centres unmarked) [C2, tert-butyl (5-(1-(4-(perfluoroethoxy)phenyl)-1H-1,2,4-triazol-3-yl)-2,3-dihydro-1H-inden-2-yl)carbamate]",–,–,–,"mortality at 50 µg/cm2 [1, 4]: 50 to 100%; mortality at 50 µg/cm2 [2, 4]: 50 to 100%"
"NC1Cc2ccc(-c3ncn(-c4ccc(OC(F)(F)F)cc4)n3)cc2C1 (centres unmarked) [C3, 5-(1-(4-(trifluoromethoxy)phenyl)-1H-1,2,4-triazol-3-yl)-2,3-dihydro-1H-inden-2-amine dihydrochloride]",A (80-100),–,–,mortality at 50 µg/cm2 [1]: 50 to 100%; mortality at 50 µg/cm2 [2]: 50 to 100%
"NC1Cc2ccc(-c3ncn(-c4ccc(OC(F)(F)F)cc4)n3)cc2C1.O=C(O)C(F)(F)F (centres unmarked) [C4, 5-(1-(4-(trifluoromethoxy)phenyl)-1H-1,2,4-triazol-3-yl)-2,3-dihydro-1H-inden-2-amine 2,2,2-trifluoroacetate]",D (No activity noticed in this bioassay),–,–,–
"C=C(C)c1ccc(Cl)cc1[N+](=O)[O-] [C8, 4-Chloro-2-nitro-1-(prop-1-en-2-yl)benzene]",D (No activity noticed in this bioassay),–,–,–
"CCc1ccc(C)cc1NC(=S)NC(=O)c1ccccc1 [C17, N-((2-Ethyl-5-methylphenyl)carbamothioyl)benzamide]",D (No activity noticed in this bioassay),–,–,–
"COc1ccc(C(C)C)c(NC(=S)NC(=O)c2ccccc2)c1 [C18, N-((2-Isopropyl-5-methoxyphenyl)carbamothioyl)benzamide]",D (No activity noticed in this bioassay),–,–,–
"CCCc1ccc(C)cc1NC(N)=S [C20, 1-(5-methyl-2-propylphenyl)thiourea]",D (No activity noticed in this bioassay),–,–,–
"CCc1ccc(C)cc1NC(N)=S [C22, 1-(2-Ethyl-5-methylphenyl)thiourea]",D (No activity noticed in this bioassay),–,–,–
"Cc1ccc(C(C)C)c(N2C(=N)SCC2=O)c1 [C29, 2-imino-3-(2-isopropyl-5-methylphenyl)thiazolidin-4-one]",B (More than 0-Less than 80),–,–,"mortality at 50 µg/cm2 [1, 4]: 0 to 50%; mortality at 50 µg/cm2 [2, 4]: 50 to 100%"
"Cc1ccc(C(C)C)c(N2C(=O)CS/C2=N\C(=O)Oc2ccc([N+](=O)[O-])cc2)c1 [C30, (Z)-4-nitrophenyl (3-(2-isopropyl-5-methylphenyl)-4-oxothiazolidin-2-ylidene)carbamate]",D (No activity noticed in this bioassay),–,–,mortality at 50 µg/cm2 [1]: 0%
"Cc1ccc(C(C)C)c(NC(=S)NC(=O)NC2Cc3ccc(-c4ncn(-c5ccc(OC(F)(F)F)cc5)n4)cc3C2)c1 (centres unmarked) [F1, 1-[(2-isopropyl-5-methyl-phenyl)carbamothioyl]-3-[5-[1-[4-(trifluoromethoxy)phenyl]-1,2,4-triazol-3-yl]indan-2-yl]urea]",–,50 to 100,50 to 100,YFM % Control (or Mortality) rating ([3]; Table ABC): A (80-100)
"Cc1ccc(C(C)C)c(NC(=S)NC(=O)NC2Cc3ccc(-c4ncn(-c5ccc(OC(F)(F)C(F)(F)F)cc5)n4)cc3C2)c1 (centres unmarked) [F3, 1-[(2-isopropyl-5-methyl-phenyl)carbamothioyl]-3-[5-[1-[4-(1,1,2,2,2-pentafluoroethoxy)phenyl]-1,2,4-triazol-3-yl]indan-2-yl]urea]",–,50 to 100,50 to 100,YFM % Control (or Mortality) rating ([3]; Table ABC): A (80-100)
"CCc1ccc(C)cc1NC(=S)NC(=O)NC1Cc2ccc(-c3ncn(-c4ccc(OC(F)(F)F)cc4)n3)cc2C1 (centres unmarked) [F5, 1-[(2-Ethyl-5-methyl-phenyl)carbamothioyl]-3-[5-[1-[4-(trifluoromethoxy)phenyl]-1,2,4-triazol-3-yl]indan-2-yl]urea]",–,50 to 100,50 to 100,–
"CCc1cccc(C)c1NC(=S)NC(=O)NC1Cc2ccc(-c3ncn(-c4ccc(OC(F)(F)F)cc4)n3)cc2C1 (centres unmarked) [F6, 1-[(2-Ethyl-6-methyl-phenyl)carbamothioyl]-3-[5-[1-[4-(trifluoromethoxy)phenyl]-1,2,4-triazol-3-yl]indan-2-yl]urea]",–,50 to 100,50 to 100,–
"CCc1ccccc1NC(=S)NC(=O)NC1Cc2ccc(-c3ncn(-c4ccc(OC(F)(F)F)cc4)n3)cc2C1 (centres unmarked) [F7, 1-[(2-Ethylphenyl)carbamothioyl]-3-[5-[1-[4-(trifluoromethoxy)phenyl]-1,2,4-triazol-3-yl]indan-2-yl]urea]",–,50 to 100,50 to 100,–
"CCCc1ccc(C)cc1NC(=S)NC(=O)NC1Cc2ccc(-c3ncn(-c4ccc(OC(F)(F)F)cc4)n3)cc2C1 (centres unmarked) [F8, 1-[(5-Methyl-2-propyl-phenyl)carbamothioyl]-3-[5-[1-[4-(trifluoromethoxy)phenyl]-1,2,4-triazol-3-yl]indan-2-yl]urea]",–,50 to 100,50 to 100,–
"CCc1ccc(C)cc1N1C(=O)CS/C1=N\C(=O)NC1Cc2ccc(-c3ncn(-c4ccc(OC(F)(F)F)cc4)n3)cc2C1 (centres unmarked) [F9, (Z)-1-(3-(2-Ethyl-5-methylphenyl)-4-oxothiazolidin-2-ylidene)-3-(5-(1-(4-(trifluoromethoxy)phenyl)-1H-1,2,4-triazol-3-yl)-2,3-dihydro-1H-inden-2-yl)urea]",–,50 to 100,50 to 100,YFM % Control (or Mortality) rating ([3]; Table ABC): A (80-100)
"CCc1cccc(C)c1N1C(=O)CS/C1=N\C(=O)NC1Cc2ccc(-c3ncn(-c4ccc(OC(F)(F)F)cc4)n3)cc2C1 (centres unmarked) [F10, (Z)-1-(3-(2-Ethyl-6-methylphenyl)-4-oxothiazolidin-2-ylidene)-3-(5-(1-(4-(trifluoromethoxy)phenyl)-1H-1,2,4-triazol-3-yl)-2,3-dihydro-1H-inden-2-yl)urea]",–,50 to 100,50 to 100,YFM % Control (or Mortality) rating ([3]; Table ABC): A (80-100)
"CC(C)c1ccccc1NC(=S)NC(=O)NC1Cc2ccc(-c3ncn(-c4ccc(OC(F)(F)F)cc4)n3)cc2C1 (centres unmarked) [F14, 1-[(2-Isopropylphenyl)carbamothioyl]-3-[5-[1-[4-(trifluoromethoxy)phenyl]-1,2,4-triazol-3-yl]indan-2-yl]urea]",–,50 to 100,50 to 100,–
"CC(C)c1ccccc1N1C(=O)CCS/C1=N\C(=O)NC1Cc2ccc(-c3ncn(-c4ccc(OC(F)(F)F)cc4)n3)cc2C1 (centres unmarked) [FA4, (Z)-1-(3-(2-isopropylphenyl)-4-oxo-1,3-thiazinan-2-ylidene)-3-(5-(1-(4-(trifluoromethoxy)phenyl)-1H-1,2,4-triazol-3-yl)-2,3-dihydro-1H-inden-2-yl)urea]",–,50 to 100,50 to 100,–
"Cc1ccc(C(C)C)c(N2/C(=N/C(=O)NC3Cc4ccc(-c5ncn(-c6ccc(OC(F)(F)F)cc6)n5)cc4C3)SCCC2C)c1 (centres unmarked) [P16, (Z)-1-(3-(2-Isopropyl-5-methylphenyl)-4-methyl-1,3-thiazinan-2-ylidene)-3-(5-(1-(4-(trifluoromethoxy)phenyl)-1H-1,2,4-triazol-3-yl)-2,3-dihydro-1H-inden-2-yl)urea]",–,50 to 100,50 to 100,–
"Cc1ccc(C(C)C)c(N2C(=O)CCS/C2=N\C(=O)NC2Cc3ccc(-c4ncn(-c5ccc(OC(F)(F)F)cc5)n4)cc3C2)c1 (centres unmarked) [P17, (Z)-1-(3-(2-Isopropyl-5-methylphenyl)-4-oxo-1,3-thiazinan-2-ylidene)-3-(5-(1-(4-(trifluoromethoxy)phenyl)-1H-1,2,4-triazol-3-yl)-2,3-dihydro-1H-inden-2-yl)urea]",–,50 to 100,50 to 100,–
